# Measured values published in BindingDB's records for doi:10.7270/Q29G5K8R (Burnham Center For Chemical Genomics, 2010).
# pEC50: −log10 of the molar value.
# Target: Intestinal-type alkaline phosphatase (Homo sapiens, UniProt P09923)
# Assay: activation of human intestinal alkaline phosphatase – biochemical, dose response (AID 488873)
# Chain of Intestinal-type alkaline phosphatase (P09923 whole entry): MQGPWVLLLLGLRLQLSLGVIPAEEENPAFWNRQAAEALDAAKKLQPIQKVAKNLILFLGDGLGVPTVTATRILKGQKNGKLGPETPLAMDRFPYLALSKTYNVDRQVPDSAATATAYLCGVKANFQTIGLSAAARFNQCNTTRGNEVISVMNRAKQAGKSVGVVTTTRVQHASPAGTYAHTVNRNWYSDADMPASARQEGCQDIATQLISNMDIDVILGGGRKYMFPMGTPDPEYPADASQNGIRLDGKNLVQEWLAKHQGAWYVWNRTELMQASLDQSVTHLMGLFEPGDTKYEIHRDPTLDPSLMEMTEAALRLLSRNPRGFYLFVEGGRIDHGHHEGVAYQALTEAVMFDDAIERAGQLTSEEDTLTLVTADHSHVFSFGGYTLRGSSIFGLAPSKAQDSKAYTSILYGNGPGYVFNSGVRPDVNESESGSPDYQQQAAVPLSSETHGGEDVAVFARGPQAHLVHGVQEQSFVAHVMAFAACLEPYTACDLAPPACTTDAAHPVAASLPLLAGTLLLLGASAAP
row,Compound,pEC50
1,"O=C(NN=CC1=CC(=O)C(=O)CC1)NN=CC1=CC(=O)C(=O)CC1 [1,3-bis[[(Z)-(3-hydroxy-4-oxocyclohexa-2,5-dien-1-ylidene)methyl]amino]urea]",4.18
2,"O=C1CC(=O)c2c(O)cc(O)c(O)c2C1=O [4,5,7,8-tetrahydroxy-1,2-naphthoquinone]",< 4.00
3,CN(CCO)c1ccc(CN=Nc2ccc([N+](=O)[O-])cc2S(=O)(=O)Nc2ccccc2C(=O)O)cc1,4.58

# Other lines, results leading:
row,pEC50,Compound
1,4.18,Cc1cc(=O)[nH]c(N=NCc2ccc(O)c(O)c2)n1 [MLS001194906]
2,< 4.00,"Oc1ccc(CN=Nc2cc(N3CCCC3)nc(N3CCCC3)n2)cc1O [(4Z)-4-[[2-(2,6-dipyrrolidin-1-ylpyrimidin-4-yl)hydrazinyl]methylidene]-2-hydroxycyclohexa-2,5-dien-1-one]"
3,< 4.00,C#CCOCCOCCOCCNc1nc(N2CCN(C(=O)CCCCCCCCCCNC(=O)[C@@H](CCC(=O)O)n3cc(CCCCCN)nn3)CC2)nc(N2CCN(C(=O)CCCCCCCCCCNC(=O)[C@H]([C@@H](C)CC)n3cc(CCCCCN)nn3)CC2)n1 [KI-KE]
